How the values were obtained:
acetylcholinesterase [1] = molecular target: T1, acetylcholinesterase (Homo sapiens, UniProt P22303); settings: figure obtained from the study by P. N. Kaul (J. Pharm. Pharmacol. 1962); cited from earlier work
acetylcholinesterase [2] = molecular target: T1, acetylcholinesterase; assay: Acetylcholinesterase inhibition, photometric method of Ellman; assay type: biochemical; settings: pI is a logarithmic measure of capacity to prevent the action of acetylcholinesterase, read-out: Cholinesterase inhibition pI (converted)

T1 sequence (P22303 32-614): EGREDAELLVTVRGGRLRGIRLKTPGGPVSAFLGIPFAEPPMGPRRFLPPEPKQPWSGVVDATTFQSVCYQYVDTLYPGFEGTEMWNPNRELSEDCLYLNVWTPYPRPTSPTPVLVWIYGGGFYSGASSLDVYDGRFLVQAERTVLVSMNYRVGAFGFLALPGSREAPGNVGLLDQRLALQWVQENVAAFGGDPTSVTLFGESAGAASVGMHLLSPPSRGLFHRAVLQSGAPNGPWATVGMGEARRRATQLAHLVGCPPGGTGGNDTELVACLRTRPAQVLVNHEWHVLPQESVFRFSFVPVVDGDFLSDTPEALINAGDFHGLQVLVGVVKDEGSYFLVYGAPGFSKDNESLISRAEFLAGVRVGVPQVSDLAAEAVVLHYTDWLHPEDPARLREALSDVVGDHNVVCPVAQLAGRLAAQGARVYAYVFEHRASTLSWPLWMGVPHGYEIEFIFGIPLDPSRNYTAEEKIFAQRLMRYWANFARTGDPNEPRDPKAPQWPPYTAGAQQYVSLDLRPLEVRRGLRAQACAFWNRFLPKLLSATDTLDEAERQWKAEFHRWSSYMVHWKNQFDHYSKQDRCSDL

Compound | Cholinesterase inhibition pI (acetylcholinesterase [1]) | IC50 (acetylcholinesterase [2]) [nM]
Nc1ccnc2ccccc12 [4-aminoquinoline] | 4.3 | 
Nc1c2c(nc3ccccc13)C(O)C(O)C(O)C2O (stereo not drawn) [9-amino-1,2,3,4-tetrahydroacridin 1,2,3,4-tetraol] |  | 158
Nc1c2c(nc3ccccc13)CCC(O)C2O (stereo not drawn) [9-amino-1,2,3,4-tetrahydroacridin-1,2-diol] |  | 1260
Nc1c2c(nc3ccccc13)C(O)C(O)C(O)C2 (stereo not drawn) [9-amino-1,2,3,4-tetrahydroacridin-2,3,4-triol] |  | 126
Nc1c2c(nc3ccccc13)C(O)C(O)CC2 (stereo not drawn) [9-amino-1,2,3,4-tetrahydroacridin-3,4-diol] |  | 200
Nc1c2c(nc3ccccc13)C(=O)CC(O)C2O (stereo not drawn) [9-amino-1,2-dihydroacridin-1,2-diol 4(3H)-one] |  | 501
Nc1c2c(nc3ccccc13)C=CC(O)C2O (stereo not drawn) [9-amino-1,2-dihydroacridin-1,2-diol] |  | 631
Nc1c2ccccc2nc2c(O)ccc(O)c12 [9-amino-1,4-dihydroxyacridine] |  | 316
Nc1c2ccccc2nc2c(O)cc(O)cc12 [9-amino-2,4-dihydroxyacridine] |  | 158
